In patent US4442044A, “Process for preparing monoesters and diesters of N-alkyl substituted amino methyl phosphonic acid” (priority 1983, dated 1984):

Legend:
Assay in all cases: post-emergent herbicidal activity, greenhouse
Type in all cases: in vivo
Details in all cases: Table I
[1] = test system: Morningglory
From the text: (§1) A good grade of top soil is placed in aluminum pans having holes in the bottom and compacted to a depth of 0.95 to 1.27 cm. from the top of the pan. A predetermined number of seeds of each of several dicotyledonous and monocotyledonous annual plant species and/or vegetative propagules for the perennial plant species were placed on the soil and pressed into the soil surface. The seeds and/or vegetative propagules are covered with soil and leveled. The pans are then placed on a sand bench in the greenhouse and watered from below as needed. After the plants reach the desired age (two to three weeks), each pan except for the control pans is removed individually to a spraying chamber and sprayed by means of an atomizer operating at a positive air pressure of approximately 1.46 kg/cm^2 absolute. The atomizer contains 6 ml. of a solution or suspension of the chemical. In that 6 ml., is an amount of a cyclohexanone emulsifying agent mixture to give a spray solution or suspension which contains about 0.4% by weight of the emulsifier. The spray solution or suspension contains a sufficient amount of the candidate chemical in order to give application rates corresponding to those set forth in the tables. The spray solution is prepared by taking an aliquot of a 1.0% by weight stock solution or suspension of the candidate chemical in an organic solvent such as acetone or tetrahydrofuran or in water. The emulsifying agent employed is a mixture comprising 35 weight percent butylamine dodecylbenzene sulfonate and 65 weight percent of a tall oil ethylene oxide condensate having about 11 moles of ethylene oxide per mole of tall oil. The pans are returned to the greenhouse and watered as before and the injury to the plants as compared to the control is observed at approximately two and four weeks as indicated in the tables under WAT and the results recorded. In some instances, the two-week observations are omitted.
(§2) The post-emergent herbicidal activity index used in Tables I and II is as follows: […]

[2] = test system: Johnsongrass
From the text: as §1, §2

[3] = test system: Smartweed
From the text: as §1, §2

[4] = test system: Quackgrass
From the text: as §1, §2

[5] = test system: Canada Thistle
From the text: as §1, §2

[6] = test system: Lambsquarters
From the text: as §1, §2

[7] = test system: Velvetleaf
From the text: as §1, §2

[8] = test system: Barnyardgrass
From the text: as §1, §2

[9] = test system: Downy Brome
From the text: as §1, §2

[10] = test system: Yellow Nutsedge
From the text: as §1, §2

[11] = test system: Cocklebur
From the text: as §1, §2

## N#CCCOP(=O)(CNCC#N)OCCC#N [Example 11, phosphonic acid, [[(cyanomethyl)amino]-methyl],bis 2-(cyanoethyl)ester]
[1]; 2 WAT, 5.6 kg/h
  post-emergent herbicidal activity index: 0 (0-24% control)
[1]; 4 WAT, 11.2 kg/h
  post-emergent herbicidal activity index: 2 (50-74% control)
[2]; 2 WAT, 5.6 kg/h
  post-emergent herbicidal activity index: 0 (0-24% control)
[2]; 4 WAT, 11.2 kg/h
  post-emergent herbicidal activity index: 0 (0-24% control)
[3]; 2 WAT, 5.6 kg/h
  post-emergent herbicidal activity index: 0 (0-24% control)
[3]; 4 WAT, 11.2 kg/h
  post-emergent herbicidal activity index: 1 (25-49% control)
[4]; 2 WAT, 5.6 kg/h
  post-emergent herbicidal activity index: 0 (0-24% control)
[4]; 4 WAT, 11.2 kg/h
  post-emergent herbicidal activity index: 1 (25-49% control)
[5]; 2 WAT, 5.6 kg/h
  post-emergent herbicidal activity index: 0 (0-24% control)
[5]; 4 WAT, 11.2 kg/h
  post-emergent herbicidal activity index: 2 (50-74% control)
[6]; 2 WAT, 5.6 kg/h
  post-emergent herbicidal activity index: 1 (25-49% control)
[6]; 4 WAT, 11.2 kg/h
  post-emergent herbicidal activity index: 1 (25-49% control)
[7]; 2 WAT, 5.6 kg/h
  post-emergent herbicidal activity index: 0 (0-24% control)
[7]; 4 WAT, 11.2 kg/h
  post-emergent herbicidal activity index: 0 (0-24% control)
[8]; 2 WAT, 5.6 kg/h
  post-emergent herbicidal activity index: 0 (0-24% control)
[8]; 4 WAT, 11.2 kg/h
  post-emergent herbicidal activity index: 1 (25-49% control)
[9]; 2 WAT, 5.6 kg/h
  post-emergent herbicidal activity index: 0 (0-24% control)
[9]; 4 WAT, 11.2 kg/h
  post-emergent herbicidal activity index: 0 (0-24% control)
[10]; 2 WAT, 5.6 kg/h
  post-emergent herbicidal activity index: 0 (0-24% control)
[10]; 4 WAT, 11.2 kg/h
  post-emergent herbicidal activity index: 1 (25-49% control)
[11]; 2 WAT, 5.6 kg/h
  post-emergent herbicidal activity index: 0 (0-24% control)
[11]; 4 WAT, 11.2 kg/h
  post-emergent herbicidal activity index: 1 (25-49% control)

## CCOC(=O)CNCP(=O)(OC(CC(=O)OCC)C(=O)OCC)OC(CC(=O)OCC)C(=O)OCC (centres unmarked) [Example 14, butanoic acid, 2,2'-[[[(2-ethoxy-2-oxo-ethyl)amino]methyl]phosphinylidene]bis(oxy)-bis-,tetraethyl ester]
[1]; 2 WAT, 5.6 kg/h
  post-emergent herbicidal activity index: 0 (0-24% control)
[1]; 2 WAT, 11.2 kg/h
  post-emergent herbicidal activity index: 0 (0-24% control)
[1]; 2 WAT, 56.0 kg/h
  post-emergent herbicidal activity index: 3 (75-99% control)
[1]; 4 WAT, 56.0 kg/h
  post-emergent herbicidal activity index: 2 (50-74% control)
[2]; 2 WAT, 5.6 kg/h
  post-emergent herbicidal activity index: 0 (0-24% control)
[2]; 2 WAT, 11.2 kg/h
  post-emergent herbicidal activity index: 0 (0-24% control)
[2]; 2 WAT, 56.0 kg/h
  post-emergent herbicidal activity index: 3 (75-99% control)
[2]; 4 WAT, 56.0 kg/h
  post-emergent herbicidal activity index: 3 (75-99% control)
[3]; 2 WAT, 5.6 kg/h
  post-emergent herbicidal activity index: 0 (0-24% control)
[3]; 2 WAT, 11.2 kg/h
  post-emergent herbicidal activity index: 0 (0-24% control)
[3]; 2 WAT, 56.0 kg/h
  post-emergent herbicidal activity index: 4 (100% control)
[3]; 4 WAT, 56.0 kg/h
  post-emergent herbicidal activity index: 3 (75-99% control)
[4]; 2 WAT, 5.6 kg/h
  post-emergent herbicidal activity index: 0 (0-24% control)
[4]; 2 WAT, 11.2 kg/h
  post-emergent herbicidal activity index: 0 (0-24% control)
[4]; 2 WAT, 56.0 kg/h
  post-emergent herbicidal activity index: 4 (100% control)
[4]; 4 WAT, 56.0 kg/h
  post-emergent herbicidal activity index: 3 (75-99% control)
[5]; 2 WAT, 5.6 kg/h
  post-emergent herbicidal activity index: 0 (0-24% control)
[5]; 2 WAT, 11.2 kg/h
  post-emergent herbicidal activity index: 0 (0-24% control)
[5]; 2 WAT, 56.0 kg/h
  post-emergent herbicidal activity index: 4 (100% control)
[5]; 4 WAT, 56.0 kg/h
  post-emergent herbicidal activity index: 1 (25-49% control)
[6]; 2 WAT, 5.6 kg/h
  post-emergent herbicidal activity index: 0 (0-24% control)
[6]; 2 WAT, 11.2 kg/h
  post-emergent herbicidal activity index: 0 (0-24% control)
[6]; 2 WAT, 56.0 kg/h
  post-emergent herbicidal activity index: 4 (100% control)
[6]; 4 WAT, 56.0 kg/h
  post-emergent herbicidal activity index: 4 (100% control)
[7]; 2 WAT, 5.6 kg/h
  post-emergent herbicidal activity index: 0 (0-24% control)
[7]; 2 WAT, 11.2 kg/h
  post-emergent herbicidal activity index: 0 (0-24% control)
[7]; 2 WAT, 56.0 kg/h
  post-emergent herbicidal activity index: 4 (100% control)
[7]; 4 WAT, 56.0 kg/h
  post-emergent herbicidal activity index: 3 (75-99% control)
[8]; 2 WAT, 5.6 kg/h
  post-emergent herbicidal activity index: 0 (0-24% control)
[8]; 2 WAT, 11.2 kg/h
  post-emergent herbicidal activity index: 0 (0-24% control)
[8]; 2 WAT, 56.0 kg/h
  post-emergent herbicidal activity index: 4 (100% control)
[8]; 4 WAT, 56.0 kg/h
  post-emergent herbicidal activity index: 3 (75-99% control)
[9]; 2 WAT, 5.6 kg/h
  post-emergent herbicidal activity index: 0 (0-24% control)
[9]; 2 WAT, 11.2 kg/h
  post-emergent herbicidal activity index: 0 (0-24% control)
[9]; 2 WAT, 56.0 kg/h
  post-emergent herbicidal activity index: 3 (75-99% control)
[9]; 4 WAT, 56.0 kg/h
  post-emergent herbicidal activity index: 2 (50-74% control)
[10]; 2 WAT, 5.6 kg/h
  post-emergent herbicidal activity index: 0 (0-24% control)
[10]; 2 WAT, 11.2 kg/h
  post-emergent herbicidal activity index: 0 (0-24% control)
[10]; 2 WAT, 56.0 kg/h
  post-emergent herbicidal activity index: 4 (100% control)
[10]; 4 WAT, 56.0 kg/h
  post-emergent herbicidal activity index: 1 (25-49% control)
[11]; 2 WAT, 5.6 kg/h
  post-emergent herbicidal activity index: 0 (0-24% control)
[11]; 2 WAT, 11.2 kg/h
  post-emergent herbicidal activity index: 0 (0-24% control)
[11]; 2 WAT, 56.0 kg/h
  post-emergent herbicidal activity index: 4 (100% control)
[11]; 4 WAT, 56.0 kg/h
  post-emergent herbicidal activity index: 4 (100% control)

## CCOC(=O)CNCP(=O)(OC(C)C(=O)OCC)OC(C)C(=O)OCC (centres unmarked) [Example 16, propanoic acid, 2,2'-[[[[(2-ethoxy-2-oxoethyl)amino]methyl]phosphinylidene]bis(oxy)]-bis-,diethyl ester]
[1]; 4 WAT, 5.6 kg/h
  post-emergent herbicidal activity index: 1 (25-49% control)
[1]; 4 WAT, 11.2 kg/h
  post-emergent herbicidal activity index: 1 (25-49% control)
[2]; 4 WAT, 5.6 kg/h
  post-emergent herbicidal activity index: 0 (0-24% control)
[2]; 4 WAT, 11.2 kg/h
  post-emergent herbicidal activity index: 0 (0-24% control)
[3]; 4 WAT, 5.6 kg/h
  post-emergent herbicidal activity index: 0 (0-24% control)
[3]; 4 WAT, 11.2 kg/h
  post-emergent herbicidal activity index: 0 (0-24% control)
[4]; 4 WAT, 5.6 kg/h
  post-emergent herbicidal activity index: 0 (0-24% control)
[4]; 4 WAT, 11.2 kg/h
  post-emergent herbicidal activity index: 0 (0-24% control)
[5]; 4 WAT, 5.6 kg/h
  post-emergent herbicidal activity index: 0 (0-24% control)
[5]; 4 WAT, 11.2 kg/h
  post-emergent herbicidal activity index: 0 (0-24% control)
[6]; 4 WAT, 5.6 kg/h
  post-emergent herbicidal activity index: 0 (0-24% control)
[6]; 4 WAT, 11.2 kg/h
  post-emergent herbicidal activity index: 0 (0-24% control)
[7]; 4 WAT, 5.6 kg/h
  post-emergent herbicidal activity index: 0 (0-24% control)
[7]; 4 WAT, 11.2 kg/h
  post-emergent herbicidal activity index: 0 (0-24% control)
[8]; 4 WAT, 5.6 kg/h
  post-emergent herbicidal activity index: 1 (25-49% control)
[8]; 4 WAT, 11.2 kg/h
  post-emergent herbicidal activity index: 1 (25-49% control)
[9]; 4 WAT, 5.6 kg/h
  post-emergent herbicidal activity index: 0 (0-24% control)
[9]; 4 WAT, 11.2 kg/h
  post-emergent herbicidal activity index: 1 (25-49% control)
[10]; 4 WAT, 5.6 kg/h
  post-emergent herbicidal activity index: 1 (25-49% control)
[10]; 4 WAT, 11.2 kg/h
  post-emergent herbicidal activity index: 1 (25-49% control)
[11]; 4 WAT, 5.6 kg/h
  post-emergent herbicidal activity index: 0 (0-24% control)
[11]; 4 WAT, 11.2 kg/h
  post-emergent herbicidal activity index: 1 (25-49% control)

## CCOC(=O)CNCP(=O)(OCCCl)OCCCl [Example 17, glycine, N-[[bis(2-chloroethoxy)phosphinyl]methyl]-, ethyl ester]
[1]; 2 WAT, 5.6 kg/h
  post-emergent herbicidal activity index: 0 (0-24% control)
[1]; 4 WAT, 11.2 kg/h
  post-emergent herbicidal activity index: 1 (25-49% control)
[2]; 2 WAT, 5.6 kg/h
  post-emergent herbicidal activity index: 0 (0-24% control)
[2]; 4 WAT, 11.2 kg/h
  post-emergent herbicidal activity index: 0 (0-24% control)
[3]; 2 WAT, 5.6 kg/h
  post-emergent herbicidal activity index: 0 (0-24% control)
[3]; 4 WAT, 11.2 kg/h
  post-emergent herbicidal activity index: 1 (25-49% control)
[4]; 2 WAT, 5.6 kg/h
  post-emergent herbicidal activity index: 0 (0-24% control)
[4]; 4 WAT, 11.2 kg/h
  post-emergent herbicidal activity index: 0 (0-24% control)
[5]; 2 WAT, 5.6 kg/h
  post-emergent herbicidal activity index: 0 (0-24% control)
[5]; 4 WAT, 11.2 kg/h
  post-emergent herbicidal activity index: 0 (0-24% control)
[6]; 2 WAT, 5.6 kg/h
  post-emergent herbicidal activity index: 0 (0-24% control)
[6]; 4 WAT, 11.2 kg/h
  post-emergent herbicidal activity index: 1 (25-49% control)
[7]; 2 WAT, 5.6 kg/h
  post-emergent herbicidal activity index: 0 (0-24% control)
[7]; 4 WAT, 11.2 kg/h
  post-emergent herbicidal activity index: 1 (25-49% control)
[8]; 2 WAT, 5.6 kg/h
  post-emergent herbicidal activity index: 0 (0-24% control)
[8]; 4 WAT, 11.2 kg/h
  post-emergent herbicidal activity index: 1 (25-49% control)
[9]; 2 WAT, 5.6 kg/h
  post-emergent herbicidal activity index: 0 (0-24% control)
[9]; 4 WAT, 11.2 kg/h
  post-emergent herbicidal activity index: 0 (0-24% control)
[10]; 2 WAT, 5.6 kg/h
  post-emergent herbicidal activity index: 0 (0-24% control)
[10]; 4 WAT, 11.2 kg/h
  post-emergent herbicidal activity index: 0 (0-24% control)
[11]; 2 WAT, 5.6 kg/h
  post-emergent herbicidal activity index: 0 (0-24% control)
[11]; 4 WAT, 11.2 kg/h
  post-emergent herbicidal activity index: 0 (0-24% control)
